The source of these data is patent US11654132B2, “Methods for treating COVID-19” (priority 2020, dated 2023).

In data set [1] the test system is SARS-CoVid-2 infection. To be noted: combined with azithromycin; cited from earlier work.
In data set [2] the test system is CYP. The note with it: cited from earlier work.
The conditions of data set [3]: cited from earlier work; for in vivo activity: oral and/or intravenous administration, prodrug vs active form.
For data set [4], the system named is Lipopolysaccharide stimulated IL-1B production. To be noted: ex-vivo; active metabolite; cited from earlier work.
For data set [5], the system named is chronic HCV. The note with it: cited from earlier work.
The conditions of data set [6]: NASH patients; cited from earlier work.
The conditions of data set [7]: in vivo; cited from earlier work.
The conditions of data set [8]: in vivo; cited from earlier work. This is another data set of the same source.
Data set [9] has as its system IL-18. The note with it: cited from earlier work; for inhibition of IL-18: during the duration of the study.
Data set [10] relates to CD4 T-cell pyroptotic death in HIV-infected lymphoid tissues. To be noted: dose-dependent; cited from earlier work.
The conditions of data set [11]: dogs at 2000 mg/kg/day; cited from earlier work.
Data set [12] deals with T1, caspase-1 (Homo sapiens, UniProt P29466).
T1 sequence (P29466 120-297 limits assumed): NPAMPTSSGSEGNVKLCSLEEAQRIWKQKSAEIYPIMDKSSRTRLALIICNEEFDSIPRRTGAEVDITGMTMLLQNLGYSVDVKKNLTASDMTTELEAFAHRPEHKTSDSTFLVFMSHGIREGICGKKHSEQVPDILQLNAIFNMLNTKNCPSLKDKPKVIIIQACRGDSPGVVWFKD
T1 sequence (P29466 317-404 limits assumed): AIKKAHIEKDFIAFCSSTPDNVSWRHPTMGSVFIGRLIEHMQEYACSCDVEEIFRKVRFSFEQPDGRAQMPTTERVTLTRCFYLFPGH
To be noted: healthy and disease states; cited from earlier work.

Data set [13] deals with IL-1B. To be noted: cited from earlier work.
The conditions of data set [14]: in vivo; cited from earlier work. The source holds these as a separate data set.
The conditions of data set [15]: in vivo.
Data set [16] concerns the target CYP3A4 (Homo sapiens, UniProt P08684). The note with it: recombinant enzyme system; cited from earlier work.
For data set [17], the system named is SARS-CoV. To be noted: in vitro; cited from earlier work.
Data set [18] relates to COVID-19. To be noted: mild to moderate COVID-19 at high risk of progressing to severe disease; cited from earlier work.
Data set [19] has as its system SARS. The note with it: 400 mg and 100 mg added to ribavirin vs historical control; cited from earlier work.
For data set [20], the system named is SARS-CoV-2. The note with it: human, in vivo; cited from earlier work.

Read-outs that look alike come from different tables or passages of the source.

Sequence of CYP3A4 (P08684 whole entry): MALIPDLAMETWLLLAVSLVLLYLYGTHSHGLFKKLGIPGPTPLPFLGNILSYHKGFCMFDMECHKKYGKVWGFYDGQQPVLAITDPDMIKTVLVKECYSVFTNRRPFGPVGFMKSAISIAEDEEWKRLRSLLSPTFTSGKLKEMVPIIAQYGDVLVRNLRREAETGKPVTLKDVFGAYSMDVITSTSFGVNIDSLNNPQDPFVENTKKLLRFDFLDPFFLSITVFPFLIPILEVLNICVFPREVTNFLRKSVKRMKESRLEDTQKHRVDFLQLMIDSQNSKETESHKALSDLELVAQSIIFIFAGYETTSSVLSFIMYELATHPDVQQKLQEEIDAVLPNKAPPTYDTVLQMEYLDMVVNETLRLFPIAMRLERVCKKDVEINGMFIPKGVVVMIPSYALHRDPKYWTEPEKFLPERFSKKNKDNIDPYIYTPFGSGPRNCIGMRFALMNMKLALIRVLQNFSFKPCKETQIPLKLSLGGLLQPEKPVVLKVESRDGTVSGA

As for `CCN(CCO)CCCC(C)Nc1ccnc2cc(Cl)ccc12` (centres unmarked) [Hydroxychloroquine], the “viral loads vs control patients” value in [1] was “Viral loads appeared to diminish faster”.
As for `CC(C)(C)C(NC(=O)c1ccc(N)c(Cl)c1)C(=O)N1CCCC1C(=O)NC(C=O)CC(=O)O` (centres unmarked) [II], the “CYP-mediated metabolism as route of clearance” value in data set [2] (in vitro studies) is “not a major route of clearance”. Moreover, the bioavailability result in [3] (active form) is on record as “poor bioavailability”. Further, the in vivo activity entry in [3] is reported as “less than optimal in vivo activity”. The “concentration at which Lipopolysaccharide stimulated IL-1B production is 50% suppressed” value in [4] was 0.8 µg/mL.
Take `CC(C)[C@@]1(C(=O)N[C@H]2CC(=O)O[C@]2(O)CF)CC(c2nccc3ccccc23)=NO1` [Nivocasan]: in data set [5], the “reason for termination of Phase IIb” value is given as “significant laboratory abnormalities”. Besides, the ALT levels result in [6] is listed as “Reductions in ALT levels in NASH”.
Consider `CCO[C@@H]1OC(=O)C[C@@H]1NC(=O)[C@@H]1CCCN2C(=O)CC[C@H](NC(=O)c3nccc4ccccc34)C(=O)N12` [Pralnacasan], for which the “clinical trial outcome in rheumatoid arthritis and osteoarthritis” value in data set [7] is “amelioration of RA, but not”. The “reason for termination in Phase IIb in RA” value in [8] was “liver toxicity in animals (102)”.
Consider `CCO[C@@H]1OC(=O)C[C@@H]1NC(=O)[C@@H]1CCCN1C(=O)[C@@H](NC(=O)c1ccc(N)c(Cl)c1)C(C)(C)C` [belnacasan], for which the “inhibition of IL-18” value in data set [9] (900 mg TID), in data set [9] (1200 mg TID) and in [9] (1800 mg TID) was 60% in each case. Also, the “inhibition of IL-18 over 14 days as compared to placebo” value in data set [9] (healthy controls) is on record as “gradual but marked inhibition”. The “CD4 T-cell pyroptotic death” value in data set [10] was “Prevents CD4 T-cell”. The “only preclinical finding on toxicity studies” value in [11] is given as “reduction of the heart rate”. Further, the “effect of blocking caspase-1” value in data set [12] was “prevent production of IL-1β, IL-18, and pyroptosis”. Moreover, the “suppression of IL-1B” value in [13] (single oral dose of 400 mg) is reported as 50%; in data set [13] (single oral dose of 800 mg) it was 80%; in data set [13] (single oral dose of 1600 mg), 80%. Further, in [2], the “CYP-mediated metabolism as route of clearance” value is “not a major route of clearance”. In data set [3], the in vivo activity result was “better in vivo activity”. Moreover, the “adverse effects reported in humans” value in data set [14] was “mild and mainly include headache, nausea, lethargy and dizziness”. For the same compound, the seizure entry in data set [14] is listed as “reported in more than one patient”. In addition, the “severity of adverse events (CTCAE)” value in data set [14] was “mild and of no consequence (grade 1 and 2 by CTCAE criteria)”. Also, the “dog dose estimated as multiple of the maximum dose in this study” value in data set [15] is given as 10-25 times. In addition, the “metabolism by CYP3A4” value in data set [16] is “metabolized by CYP3A4”.
Regarding `Cc1cccc(C)c1OCC(=O)N[C@@H](Cc1ccccc1)[C@@H](O)C[C@H](Cc1ccccc1)NC(=O)[C@H](C(C)C)N1CCCNC1=O` [lopinavir], the “activity against SARS-CoV” value in data set [17] was “in vitro inhibitory activity”.
On to “bamlanivimab: monoclonal antibody for COVID-19”, for which the efficacy result in data set [18] is reported as “efficacious”.
For “casirivimab: monoclonal antibody for COVID-19”, in [18], the efficacy entry was “efficacious”.
On to “imdevimab: monoclonal antibody for COVID-19”, for which, in data set [18], the efficacy result is listed as “efficacious”.
Regarding lopinavir—ritonavir, in [19], the “risk of adverse clinical outcomes (ARDS or death) and viral load” value is listed as “reduced the risk of adverse clinical outcomes”. Further, in data set [20], the “clinical symptoms, mortality, viral loads vs standard of care alone” value is “no improvement in clinical symptoms, mortality, or viral loads”.
